Measurements: BindingDB's records for patent US20240132473 (Shanghai Xunhe Pharmaceutical Technology Co., 2024)

Molecular target: T1, Interleukin-1 receptor-associated kinase 4 (Homo sapiens, UniProt Q9NWZ3)
T1 sequence (Q9NWZ3 whole entry): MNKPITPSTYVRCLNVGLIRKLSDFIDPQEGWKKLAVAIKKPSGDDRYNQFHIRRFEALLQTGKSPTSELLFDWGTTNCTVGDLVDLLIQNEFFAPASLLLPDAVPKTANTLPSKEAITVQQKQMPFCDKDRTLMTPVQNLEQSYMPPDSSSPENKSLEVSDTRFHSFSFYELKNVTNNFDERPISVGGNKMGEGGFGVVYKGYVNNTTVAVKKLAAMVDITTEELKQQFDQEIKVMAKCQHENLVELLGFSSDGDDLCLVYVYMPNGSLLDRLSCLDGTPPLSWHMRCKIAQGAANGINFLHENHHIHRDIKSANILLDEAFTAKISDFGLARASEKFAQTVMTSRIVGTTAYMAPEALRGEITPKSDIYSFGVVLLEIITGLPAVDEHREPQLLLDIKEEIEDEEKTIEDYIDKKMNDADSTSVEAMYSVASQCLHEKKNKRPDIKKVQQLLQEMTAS
Experiment: IRAK4 Kinase Inhibitory Activity Assay
Protocol: The inhibitory activity (IC50) of the compound on IRAK4 kinase under Km ATP was detected by mobility shift assay (MSA). Ten drug concentration gradients were set (initial concentration 1 μM, 3-fold dilution, 2 duplicate wells per concentration). […] After incubation at 28° C. for a period of time, 10 μL of termination buffer was added to terminate the reaction. The conversion rate data was read with Caliper, and then the conversion rate was converted into inhibition rate data. According to the inhibition rate data of each concentration, the IC50 of half inhibitory concentration was calculated by Logit method (Table 3).

SMILES	IC50
CC(C)(O)c1cc2nn(CCS(C)(=N)=O)cc2cc1NC(=O)c1cccc(C(F)(F)F)n1 (configuration not stated) [US20240132473, Compound MY-004-102]	152 nM
COc1cc2nn(CCS(C)(=N)=O)cc2cc1NC(=O)c1cccc(C(F)(F)F)n1 (configuration not stated) [US20240132473, Compound MY-004-103]	137 nM
